Reference: patent US20230107216A1, “PANTETHEINE DERIVATIVES AND USES THEREOF” (Comet Therapeutics, Inc., priority 2018, published 2023)
Like-named read-outs stand apart in the source and are kept apart here.

What was measured:
[1] = system: Methylmalonic Acidemia (MMA) primary fibroblasts Tsi 5224; assay: Mitochondrial respiration, XFe96 Extracellular Flux Analyzer (OCR/ECAR), MMA fibroblasts Tsi 5224; format: cell-based; settings: Homo sapiens, Fibroblast;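 for Increase in Maximal Respiratory Capacity AUC: relative to vehicle DMSO control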
Method in brief: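 Primary fibroblasts (20000 cells/well) were held 24 h in supplemented DMEM before Seahorse OCR/ECAR profiling. Compounds at 10 to 50 μM or 0.1% DMSO were injected after baseline, then oligomycin 1 μg/ml, FCCP, and rotenone/antimycin A 0.5 μM. Values were normalized to Hoechst nuclear counts, baselined to pre-compound, and expressed relative to vehicle.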

[2] = system: primary fibroblasts (healthy controls and PA, MMA, BCKDK, PDH, VLCAD, LS, PC, GA, VLCFA, KSS, FXN, HD); assay: Measurement of ROS (H2DCFDA) in primary fibroblasts; format: cell-based, human; settings: Homo sapiens, procedure Example 812
Method in brief: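 Patient and healthy-control primary fibroblasts switched to supplemented DMEM 24 h before assay, then treated with compound (10 μM) plus H2DCFDA (22 μM) for 2 h (PA, MMA lines) or 24 h (other lines). Kinetic fluorescence at 492/527 nm over 60 min; only live cells analysed.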

[3] = MMA Tsi 5224, assay condition D (1 mM glucose, 10% FBS), read-out: Increase in Maximal Respiratory Capacity AUC
[4] = MMA Tsi 5224, assay condition D (1 mM glucose, 10% FBS), read-out: Increase in Spare Capacity AUC
[5] = Fibroblast, BCKD GM00612, Assay Condition A, read-out: Decreased ROS by at least 10%
[6] = Fibroblast, VLCFA GM13262, Assay Condition C, read-out: Decreased ROS by at least 30%
[7] = FXN GM04078, Assay Condition C, read-out: Decreased ROS by at least 10%
[8] = FXN GM04078, Assay Condition C, read-out: Decreased ROS by at least 30%
[9] = MMA Tsi 5224, assay condition A (10 mM glucose, 2 mM L-glutamine, 1 mM pyruvate, 10% FBS), read-out: Increase in Maximal Respiratory Capacity AUC
[10] = Fibroblast, BCKD GM00649, Assay Condition C, read-out: Decreased ROS by at least 10%
[11] = Fibroblast, BCKD GM00649, Assay Condition C, read-out: Decreased ROS by at least 30%

Row | SMILES | activation at 10 µM [1, 3] | activation at 10 µM [1, 4] | inhibition at 10 µM [2, 5] | inhibition at 10 µM [2, 6] | inhibition at 10 µM [2, 7] | inhibition at 10 µM [2, 8] | inhibition at 10 µM ([2]; Fibroblast, PDH GM01503, Assay Condition C, read-out: Decreased ROS by at least 10%) | inhibition at 10 µM ([2]; Fibroblast, PDH GM01503, Assay Condition C, read-out: Decreased ROS by at least 30%) | activation at 10 µM [1, 9] | inhibition at 10 µM [2, 10] | inhibition at 10 µM [2, 11] | inhibition at 10 µM ([2]; Fibroblast, VLCFA GM13262, Assay Condition C, read-out: Decreased ROS by at least 10%) | activation at 10 µM ([1]; MMA Tsi 5224, assay condition A (10 mM glucose, 2 mM L-glutamine, 1 mM pyruvate, 10% FBS), read-out: Increase in Spare Capacity AUC) | inhibition at 10 µM ([2]; Fibroblast, MMA Tsi 5224, Assay Condition A, read-out: Decreased ROS by at least 10%)
1 | COC(=O)CC[C@H](N)C(=O)SCCNC(=O)CCNC(=O)[C@H](O)C(C)(C)CO [Compound 411] | ≥ 10% | ≥ 10% | ≥ 10% | ≥ 30% | ≥ 10% | ≥ 30% | – | – | – | – | – | – | – | –
2 | C[C@@H](O)CC(=O)SCCNC(=O)CCNC(=O)[C@H](O)C(C)(C)CO [Compound 38, S-2-{3-[(R)-2,4-dihydroxy-3,3-dimethylbutyrylamino]propionylamino} ethyl (R)-3-hydroxybutanethioate] | ≥ 10% | – | – | – | ≥ 10% | ≥ 30% | ≥ 10% | ≥ 30% | – | – | – | – | – | –
3 | COC(=O)CCC(=O)SCCNC(=O)CCNC(=O)[C@H](O)C(C)(C)CO [Compound 4, Methyl (R)-4-((2-(3-(2,4-dihydroxy-3,3-dimethylbutanamido)propanamido)ethyl)thio)-4-oxobutanoate] | ≥ 10% | ≥ 10% | – | – | – | – | – | – | ≥ 10% | ≥ 10% | ≥ 30% | – | – | –
4 | CC(C)=CC(=O)SCCNC(=O)CCNC(=O)[C@H](O)C(C)(C)CO [Compound 37, S-2-{3-[(R)-2,4-dihydroxy-3,3-dimethylbutyrylamino]propionylamino}ethyl 3-methyl-2-butenethioate] | ≥ 10% | – | – | ≥ 30% | – | – | – | – | – | – | – | ≥ 10% | – | –
5 | CC(C)(CO)[C@@H](OC(=O)CCC(=O)O)C(=O)NCCC(=O)NCCS [Compound 1311, (R)-4-((4-hydroxy-1-((3-((2-mercaptoethyl)amino)-3-oxopropyl)amino)-3,3-dimethyl-1-oxobutan-2-yl)oxy)-4-oxobutanoic acid] | ≥ 10% | – | ≥ 10% | ≥ 30% | ≥ 10% | ≥ 30% | – | – | ≥ 10% | – | – | – | – | –
6 | CC(O)CC(O)CC(=O)SCCNC(=O)CCNC(=O)[C@H](O)C(C)(C)CO (stereo partly shown) [Compound 400] | ≥ 10% | – | – | – | ≥ 10% | ≥ 30% | – | – | – | ≥ 10% | ≥ 30% | – | – | –
7 | C[C@H](CC(=O)SCCNC(=O)CCNC(=O)[C@H](O)C(C)(C)CO)OC(=O)CCC(=O)O [Compound 1243, 4-{[(2R)-4-[(2-{3-[(2R)-2,4-dihydroxy-3,3-dimethylbutanamido]propanamido}ethyl)sulfanyl]-4-oxobutan-2-yl]oxy}-4-oxobutanoic acid] | – | – | – | – | ≥ 10% | ≥ 30% | – | – | – | ≥ 10% | ≥ 30% | – | ≥ 10% | –
8 | COC(=O)CC(C(C)=O)C(=O)SCCNC(=O)CCNC(=O)[C@H](O)C(C)(C)CO (stereo partly shown) [Compound 410] | ≥ 10% | – | – | – | ≥ 10% | ≥ 30% | – | – | – | – | ≥ 30% | – | – | ≥ 10%
